From patent US20230096766A1, “AMINO ACID HAVING FUNCTIONAL GROUP CAPABLE OF INTERMOLECULAR HYDROGEN BONDING, PEPTIDE COMPOUND CONTAINING SAME AND METHOD FOR PRODUCTION THEREOF” (Chugai Seiyaku Kabushiki Kaisha, priority 2018, published 2023) come the findings set out here.

*1 amine or outer side, *2 acyl side, *3 side chain or, on linkers, in order; H or OH if unused. Where a SMILES comes first, the peptide text is derived from it. Bridges are numbered along the chain shown (N, C = ends). [ ]: non-standard residue; d: D form. The star is where a group is joined. ξ: configuration not given here. Phe(3-OMe,4-CONHMs) = COc1cc(C[C@H](N)C(=O)O)ccc1C(=O)NS(C)(=O)=O; hPhe(3-OMe,4-CONHMe) = CNC(=O)c1ccc(CC[C@H](N)C(=O)O)cc1OC; NMePhe(3-Cl) = CN[C@@H](Cc1cccc(Cl)c1)C(=O)O; X9 = O=C([C@@H](CN[*:1])COCCO)[*:2]; NMeF = CN[C@@H](Cc1ccccc1)C(=O)O; NMeGABA = CN(CCCC(=O)[*:2])[*:1]; NMeI = CC[C@H](C)[C@H](NC)C(=O)O; NMeL = CN[C@@H](CC(C)C)C(=O)O; NMeV = CN[C@H](C(=O)O)C(C)C; NMeAbu = CC[C@H](NC)C(=O)O; Piperidide = C1CCN(*)CC1; Abu = CC[C@H](N)C(=O)O; NBuGly = CCCCNCC(=O)O; ξL = CC(C)CC(N)C(=O)O; NPrGly = CCCNCC(=O)O; Sar = CNCC(=O)O; tBu = CC(C)(C)*

The data set in a line: in vitro. As to conditions: human, Caco-2, Caco-2 (cm/sec).
With `CCCCN1CC(=O)N(C)[C@@H](Cc2ccccc2)C(=O)NC[C@@H](COCCO)C(=O)N(C)[C@@H](CC(C)C)C(=O)N[C@@H]([C@@H](C)O)C(=O)N(CCC)CC(=O)N(C)[C@@H](Cc2ccccc2)C(=O)N(C)[C@@H](CC(C)C)C(=O)N[C@@H](CC(C)C)C(=O)N(C)[C@@H](CC(C)C)C(=O)N[C@H](C(=O)N2CCCCC2)CC1=O` [AP133] ([NBuGly][NMeF][X9][NMeL]T[NPrGly][NMeF][NMeL]L[NMeL]D-Piperidide; lactam N-11), the Papp (usually a coefficient for how fast a substance crosses the barrier) is 1.8 ×10⁻⁶ cm/s.
On to `CCCCN1CC(=O)N(C)[C@@H](Cc2ccccc2)C(=O)N[C@@H]([C@@H](C)CC)C(=O)N(C)[C@@H](CC(C)C)C(=O)N[C@@H]([C@@H](C)O)C(=O)N(CCC)CC(=O)N(C)[C@@H](Cc2ccccc2)C(=O)N(C)[C@@H](CC(C)C)C(=O)NC[C@@H](COCCO)C(=O)N(C)[C@@H](CC(C)C)C(=O)N[C@H](C(=O)N2CCCCC2)CC1=O` [AP134] ([NBuGly][NMeF]I[NMeL]T[NPrGly][NMeF][NMeL][X9][NMeL]D-Piperidide; lactam N-11), for which the Papp was 0.62 ×10⁻⁶ cm/s.
The figure for `CCCCN1CC(=O)N(C)[C@@H](CC(C)C)C(=O)N[C@@H](COC(C)(C)C)C(=O)N(C)[C@@H](Cc2ccccc2)C(=O)N(C)[C@@H](CC(C)C)C(=O)N[C@H](C(=O)N2CCCCC2)CC(=O)N[C@H](C(C)C)C(=O)N(C)[C@@H](C(C)C)C(=O)N[C@@H](Cc2ccc(C(=O)NS(C)(=O)=O)c(OC)c2)C(=O)N(C)[C@@H](CC(C)C)C(=O)N[C@@H]([C@@H](C)O)C1=O` [AP135] ([dV][NMeV][Phe(3-OMe,4-CONHMs)][NMeL]T[NBuGly][NMeL]S(tBu)[NMeF][NMeL]D-Piperidide; lactam N-11) is 0.88 ×10⁻⁶ cm/s; for `CCCCN1CC(=O)N(C)[C@@H](CC(C)C)C(=O)N[C@@H](Cc2ccc(C(=O)NS(C)(=O)=O)c(OC)c2)C(=O)N(C)[C@@H](CC(C)C)C(=O)N(C)[C@@H](CC(C)C)C(=O)N[C@H](C(=O)N2CCCCC2)CC(=O)N[C@H](CC(C)C)C(=O)N(C)[C@@H](Cc2ccccc2)C(=O)N[C@@H](C(C)C)C(=O)N(C)[C@@H](CC(C)C)C(=O)N[C@@H]([C@@H](C)O)C1=O` [AP136] ([dL][NMeF]V[NMeL]T[NBuGly][NMeL][Phe(3-OMe,4-CONHMs)][NMeL][NMeL]D-Piperidide; lactam N-11) it is 0.47 ×10⁻⁶ cm/s.
As to `CCCCN1CC(=O)N(C)[C@@H](CC(C)C)C(=O)N[C@@H](COC(C)(C)C)C(=O)N(C)[C@@H]([C@@H](C)CC)C(=O)N(C)[C@@H](CC(C)C)C(=O)N[C@H](C(=O)N2CCCCC2)CC(=O)N[C@H](C)C(=O)N(C)[C@@H](Cc2ccccc2)C(=O)N[C@@H](Cc2ccc(C(=O)NS(C)(=O)=O)c(OC)c2)C(=O)N(C)[C@@H](CC(C)C)C(=O)N[C@@H]([C@@H](C)O)C1=O` [AP137] ([dA][NMeF][Phe(3-OMe,4-CONHMs)][NMeL]T[NBuGly][NMeL]S(tBu)[NMeI][NMeL]D-Piperidide; lactam N-11), the Papp was below 0.29 ×10⁻⁶ cm/s.
As to `CC[C@H](C)[C@@H]1NC(=O)[C@H](CC(C)C)N(C)C(=O)CCCN(C)C(=O)C[C@@H](C(=O)N2CCCCC2)NC(=O)[C@H](CC(C)C)N(C)C(=O)[C@H](CC(C)C)N(C)C(=O)[C@H]([C@@H](C)O)NC(=O)[C@H](CC(C)C)N(C)C(=O)[C@H](Cc2ccc(C(=O)NS(C)(=O)=O)c(OC)c2)NC(=O)[C@H](CC(C)C)N(C)C(=O)[C@H](Cc2ccccc2)N(C)C1=O` [AP138] ([NMeGABA][NMeL]I[NMeF][NMeL][Phe(3-OMe,4-CONHMs)][NMeL]T[NMeL][NMeL]D-Piperidide; lactam N-11), the Papp turned out to be 0.06 ×10⁻⁶ cm/s.
In turn, `CCCCN1CC(=O)N(C)[C@@H](CC(C)C)C(=O)N(C)[C@@H](CC(C)C)C(=O)N[C@@H](COC(C)(C)C)C(=O)N(C)[C@@H](CC(C)C)C(=O)N[C@H](C(=O)N2CCCCC2)CC(=O)N(C)CC(=O)N(C)[C@@H](Cc2cccc(Cl)c2)C(=O)N[C@@H](Cc2ccc(C(=O)NS(C)(=O)=O)c(OC)c2)C(=O)N(C)[C@@H](CC(C)C)C(=O)N[C@@H]([C@@H](C)O)C1=O` [AP140] ([Sar][NMePhe(3-Cl)][Phe(3-OMe,4-CONHMs)][NMeL]T[NBuGly][NMeL][NMeL]S(tBu)[NMeL]D-Piperidide; lactam N-11) gave a Papp of 0.49 ×10⁻⁶ cm/s.
Turning to `COc1cc(C[C@@H]2NC(=O)[C@H](CC(C)C)N(C)C(=O)[C@H](COC(C)(C)C)NC(=O)[C@H](Cc3ccccc3)N(C)C(=O)[C@H](CC(C)C)N(C)C(=O)[C@H](C)NC(=O)[C@H](CC(C)C)N(C)C(=O)CCCN(C)C(=O)C[C@@H](C(=O)N3CCCCC3)NC(=O)[C@H](CC(C)C)N(C)C(=O)[C@H](CC(C)C)N(C)C2=O)ccc1C(=O)NS(C)(=O)=O` [AP141] ([NMeGABA][NMeL]A[NMeL][NMeF]S(tBu)[NMeL][Phe(3-OMe,4-CONHMs)][NMeL][NMeL]D-Piperidide; lactam N-11), the Papp is below 0.27 ×10⁻⁶ cm/s.
The molecule `COc1cc(C[C@@H]2NC(=O)[C@H](C(C)C)N(C)C(=O)[C@H](CC(C)C)N(C)C(=O)C(CC(C)C)NC(=O)[C@H](CC(C)C)N(C)C(=O)[C@H](CC(C)C)N(C)C(=O)[C@H](C)NC(=O)[C@H](CC(C)C)N(C)C(=O)C[C@@H](C(=O)N3CCCCC3)NC(=O)[C@H](CC(C)C)N(C)C(=O)CN(C)C2=O)ccc1C(=O)NS(C)(=O)=O` (stereo partly drawn) [AP142] ([NMeL]A[NMeL][NMeL][ξL][NMeL][NMeV][Phe(3-OMe,4-CONHMs)][Sar][NMeL]D-Piperidide; lactam N-11) returned an apparent permeability coefficient (Papp) of 0.63 ×10⁻⁶ cm/s.
The figure for `CC[C@@H]1NC(=O)[C@H](CC(C)C)N(C)C(=O)[C@H](Cc2ccccc2)N(C)C(=O)CN(C)C(=O)[C@H](Cc2ccc(C(=O)NS(C)(=O)=O)c(OC)c2)NC(=O)[C@H](CC(C)C)N(C)C(=O)[C@H](C(C)C)NC(=O)[C@H](CC(C)C)N(C)C(=O)CN(C)C(=O)C[C@@H](C(=O)N2CCCCC2)NC(=O)[C@H](CC(C)C)N(C)C1=O` [AP143] ([Sar][NMeL]V[NMeL][Phe(3-OMe,4-CONHMs)][Sar][NMeF][NMeL][Abu][NMeL]D-Piperidide; lactam N-11) is 0.13 ×10⁻⁶ cm/s.
The molecule `CNC(=O)c1ccc(CC[C@@H]2NC(=O)[C@H](CC(C)C)N(C)C(=O)CN(C)C(=O)[C@H]([C@@H](C)O)NC(=O)[C@H](CC(C)C)N(C)C(=O)[C@H](CC(C)C)NC(=O)[C@H](Cc3ccccc3)N(C)C(=O)[C@@H](C(C)C)NC(=O)C[C@@H](C(=O)N3CCCCC3)NC(=O)[C@H](CC(C)C)N(C)C(=O)[C@H](CC(C)C)N(C)C2=O)cc1OC` [AP200] ([dV][NMeF]L[NMeL]T[Sar][NMeL][hPhe(3-OMe,4-CONHMe)][NMeL][NMeL]D-Piperidide; lactam N-11) gave an apparent permeability (Papp) of 0.88 ×10⁻⁶ cm/s.
`CCCCN1CC(=O)N(C)[C@@H](CC(C)C)C(=O)N[C@@H](COC(C)(C)C)C(=O)N(C)[C@@H](CC(C)C)C(=O)N(C)[C@@H](CC)C(=O)N[C@H](C(=O)N2CCCCC2)CC(=O)N[C@H](CC(C)C)C(=O)N(C)[C@@H](Cc2ccccc2)C(=O)N[C@@H](CCc2ccc(C(=O)NC)c(OC)c2)C(=O)N(C)[C@@H](CC(C)C)C(=O)N[C@@H]([C@@H](C)O)C1=O` [AP201] ([dL][NMeF][hPhe(3-OMe,4-CONHMe)][NMeL]T[NBuGly][NMeL]S(tBu)[NMeL][NMeAbu]D-Piperidide; lactam N-11): the apparent permeability (Papp) was 0.35 ×10⁻⁶ cm/s.
Regarding `CC[C@H](C)[C@@H]1NC(=O)[C@H](CC(C)C)N(C)C(=O)CCCN(C)C(=O)C[C@@H](C(=O)N2CCCCC2)NC(=O)[C@H](CC(C)C)N(C)C(=O)[C@H](CC(C)C)N(C)C(=O)[C@H]([C@@H](C)O)NC(=O)[C@H](CC(C)C)N(C)C(=O)[C@H](CCc2ccc(C(=O)NC)c(OC)c2)NC(=O)[C@H](CC(C)C)N(C)C(=O)[C@H](Cc2ccccc2)N(C)C1=O` [AP202] ([NMeGABA][NMeL]I[NMeF][NMeL][hPhe(3-OMe,4-CONHMe)][NMeL]T[NMeL][NMeL]D-Piperidide; lactam N-11), the Papp came out at 0.18 ×10⁻⁶ cm/s.
